Data: patent US9376418B2, “Substituted pyridine spleen tyrosine kinase (SYK) inhibitors” (Merck Sharp & Dohme Corp., priority 2012, dated 2016)
pIC50: −log10 of the molar value. Where two headings read alike, the source gives them in different places.

Molecular target: T1, recombinant human GST-SYK (Homo sapiens, UniProt P43405)
T1 construct: purchased Carna Biosciences 08-176
Assay: Homogeneous Time-Resolved Fluorescence (HTRF) assay for the recombinant human Syk enzyme
Format: biochemical
Procedure, shortened: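 GST-hSYK ([…]) was preincubated with inhibitor (0.1% DMSO final) for 10 minutes at room temperature in 15 mM Tris-HCl pH 7.5, 0.01% tween 20, 2 mM DTT. Biotinylated peptide (250 nM), 5 mM magnesium and 25 μM ATP started a 45-minute room-temperature reaction, read by time-resolved fluorescence.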

[1] = HTRF assay, recombinant human GST-SYK, IC50 given as class symbols, read-out: rhSYK Activity

Row | pIC50 [1] | pIC50 (recombinant GST-hSYK, 25 μM ATP, HTRF, read-out: IC50 (inhibition of human Syk activity)) | Compound
1 | > 7.00 | – | CC(=O)NCCNc1ccc(-c2cc(C)cc(Nc3nccc(C(F)(F)F)n3)c2)cn1 [Example 7.37, N-(2-{[5-(3-methyl-5-{[4-(trifluoromethyl)pyrimidin-2-yl]amino}phenyl)pyridin-2-yl]amino}ethyl)acetamide]
2 | > 7.00 | – | Cc1cc(Nc2nccc(C(F)(F)F)n2)cc(-c2ccc(N(C)CC(=O)O)nc2)c1 [Example 7.39, N-methyl-N-[5-(3-methyl-5-{[4-(trifluoromethyl)pyrimidin-2-yl]amino}phenyl)pyridin-2-yl]glycine]
3 | > 7.00 | – | Cc1cc(Nc2nccc(C(F)(F)F)n2)cc(-c2ccc(NCC(C)O)nc2)c1 (centres unmarked) [Example 7.40, 1-{[5-(3-methyl-5-{[4-(trifluoromethyl)pyrimidin-2-yl]amino}phenyl)pyridin-2-yl]amino}propan-2-ol]
4 | 6.00 to 7.00 | – | Cc1cc(Nc2nccc(C(F)(F)F)n2)cc(-c2ccc(N(C)CCC3OCCO3)nc2)c1 [Example 7.41, N-[3-(6-{[2-(1,3-dioxolan-2-yl)ethyl](methyl)amino}pyridin-3-yl)-5-methylphenyl]-4-(trifluoromethyl)pyrimidin-2-amine]
5 | 6.00 to 7.00 | – | CNC(=O)C1CCN(c2ccc(-c3cc(C)cc(Nc4nccc(C(F)(F)F)n4)c3)cn2)CC1 [Example 7.42, N-methyl-1-[5-(3-methyl-5-{[4-(trifluoromethyl)pyrimidin-2-yl]amino}phenyl)pyridin-2-yl]piperidine-4-carboxamide]
6 | > 7.00 | – | Cc1cc(Nc2nccc(C(F)(F)F)n2)cc(-c2ccc(NCCC(N)=O)nc2)c1 [Example 7.43, N~3~-[5-(3-methyl-5-{[4-(trifluoromethyl)pyrimidin-2-yl]amino}phenyl)pyridin-2-yl]-beta-alaninamide]
7 | > 7.00 | – | Cc1cc(Nc2nccc(C(F)(F)F)n2)cc(-c2ccc(NCC(C)(C)O)nc2)c1 [Example 7.44, 2-methyl-1-{[5-(3-methyl-5-{[4-(trifluoromethyl)pyrimidin-2-yl]amino}phenyl)pyridin-2-yl]amino}propan-2-ol]
8 | 6.00 to 7.00 | – | CC(=O)N1CCN(c2ccc(-c3cc(C)cc(Nc4nccc(C(F)(F)F)n4)c3)cn2)CC1 [Example 7.45, N-{3-[6-(4-acetylpiperazin-1-yl)pyridin-3-yl]-5-methylphenyl}-4-(trifluoromethyl)pyrimidin-2-amine]
9 | > 7.00 | – | Cc1cc(Nc2nccc(C(F)(F)F)n2)cc(-c2ccc(N3CCN(C)CC3)nc2)c1 [Example 7.46, N-{3-methyl-5-[6-(4-methylpiperazin-1-yl)pyridin-3-yl]phenyl}-4-(trifluoromethyl)pyrimidin-2-amine]
10 | > 7.00 | – | Cc1cc(Nc2nccc(C(F)(F)F)n2)cc(-c2ccc(NC3COC3)nc2)c1 [Example 7.47, N-{3-methyl-5-[6-(oxetan-3-ylamino)pyridin-3-yl]phenyl}-4-(trifluoromethyl)pyrimidin-2-amine]
11 | 6.00 to 7.00 | – | Cc1cc(Nc2nccc(C(F)(F)F)n2)cc(-c2ccc(N3CCN(S(C)(=O)=O)CC3)nc2)c1 [Example 7.48, N-(3-methyl-5-{6-[4-(methylsulfonyl)piperazin-1-yl]pyridin-3-yl}phenyl)-4-(trifluoromethyl)pyrimidin-2-amine]
12 | 6.00 to 7.00 | – | CCN1CCN(c2ccc(-c3cc(C)cc(Nc4nccc(C(F)(F)F)n4)c3)cn2)CC1 [Example 7.49, N-{3-[6-(4-ethylpiperazin-1-yl)pyridin-3-yl]-5-methylphenyl}-4-(trifluoromethyl)pyrimidin-2-amine]
13 | > 7.00 | – | CC(=O)NCCN(C)c1ccc(-c2cc(C)cc(Nc3nccc(C(F)(F)F)n3)c2)cn1 [Example 7.50, N-(2-{methyl[5-(3-methyl-5-{[4-(trifluoromethyl)pyrimidin-2-yl]amino}phenyl)pyridin-2-yl]amino}ethyl)acetamide]
14 | > 7.00 | – | Cc1cc(Nc2nccc(C(F)(F)F)n2)cc(-c2ccc(N[C@@H]3CCC(=O)NC3)nc2)c1 [Example 7.51, (5R)-5-{[5-(3-methyl-5-{[4-(trifluoromethyl)pyrimidin-2-yl]amino}phenyl)pyridin-2-yl]amino}piperidin-2-one]
15 | > 7.00 | – | Cc1cc(Nc2nccc(C(F)(F)F)n2)cc(-c2ccc(N[C@H]3CCC(=O)NC3)nc2)c1 [Example 7.52, (5S)-5-{[5-(3-methyl-5-{[4-(trifluoromethyl)pyrimidin-2-yl]amino}phenyl)pyridin-2-yl]amino}piperidin-2-one]
16 | 6.00 to 7.00 | – | Cc1cc(Nc2nccc(C(F)(F)F)n2)cc(-c2ccc(N3CCCC(F)(F)C3)nc2)c1 [Example 7.53, N-{3-[6-(3,3-difluoropiperidin-1-yl)pyridin-3-yl]-5-methylphenyl}-4-(trifluoromethyl)pyrimidin-2-amine]
17 | 6.00 to 7.00 | – | COCC1CCCN1c1ccc(-c2cc(C)cc(Nc3nccc(C(F)(F)F)n3)c2)cn1 (centres unmarked) [Example 7.54, N-(3-{6-[2-(methoxymethyl)pyrrolidin-1-yl]pyridin-3-yl}-5-methylphenyl)-4-(trifluoromethyl)pyrimidin-2-amine]

Row | pIC50 [1] | pIC50 (recombinant GST-hSYK, 25 μM ATP, HTRF, read-out: IC50 (inhibition of human Syk activity)) | Compound
18 | > 7.00 | – | Cc1cc(Nc2nccc(C(F)(F)F)n2)cc(-c2ccc(N3CCN(C)C(=O)C3C)nc2)c1 (centres unmarked) [Example 7.55, 1,3-dimethyl-4-[5-(3-methyl-5-{[4-(trifluoromethyl)pyrimidin-2-yl]amino}phenyl)pyridin-2-yl]piperazin-2-one]
19 | 6.00 to 7.00 | – | Cc1cc(Nc2nccc(C(F)(F)F)n2)cc(-c2ccc(N3CCC(F)(F)CC3)nc2)c1 [Example 7.56, N-{3-[6-(4,4-difluoropiperidin-1-yl)pyridin-3-yl]-5-methylphenyl}-4-(trifluoromethyl)pyrimidin-2-amine]
20 | > 7.00 | – | Cc1cc(Nc2nccc(C(F)(F)F)n2)cc(-c2ccc(N3CCC[C@H]3C(N)=O)nc2)c1 [Example 7.57, 1-[5-(3-methyl-5-{[4-(trifluoromethyl)pyrimidin-2-yl]amino}phenyl)pyridin-2-yl]-L-prolinamide]
21 | > 7.00 | – | Cc1cc(Nc2nccc(C(F)(F)F)n2)cc(-c2ccc(N3CC(C)NC(C)C3)nc2)c1 (centres unmarked) [Example 7.58, N-{3-[6-(3,5-dimethylpiperazin-1-yl)pyridin-3-yl]-5-methylphenyl}-4-(trifluoromethyl)pyrimidin-2-amine]
22 | > 7.00 | – | CC(=O)N1CCCN(c2ccc(-c3cc(C)cc(Nc4nccc(C(F)(F)F)n4)c3)cn2)CC1 [Example 7.59, N-{3-[6-(4-acetyl-1,4-diazepan-1-yl)pyridin-3-yl]-5-methylphenyl}-4-(trifluoromethyl)pyrimidin-2-amine]
23 | 6.00 to 7.00 | – | CCCN1CCCN(c2ccc(-c3cc(C)cc(Nc4nccc(C(F)(F)F)n4)c3)cn2)CC1 [Example 7.60, N-{3-methyl-5-[6-(4-propyl-1,4-diazepan-1-yl)pyridin-3-yl]phenyl}-4-(trifluoromethyl)pyrimidin-2-amine]
24 | 6.00 to 7.00 | – | COCC1CCN(c2ccc(-c3cc(C)cc(Nc4nccc(C(F)(F)F)n4)c3)cn2)C1 (centres unmarked) [Example 7.61, N-(3-{6-[3-(methoxymethyl)pyrrolidin-1-yl]pyridin-3-yl}-5-methylphenyl)-4-(trifluoromethyl)pyrimidin-2-amine]
25 | > 7.00 | – | CNC(=O)CCNc1ccc(-c2cc(C)cc(Nc3nccc(C(F)(F)F)n3)c2)cn1 [Example 7.62, N-methyl-N~3~-[5-(3-methyl-5-{[4-(trifluoromethyl)pyrimidin-2-yl]amino}phenyl)pyridin-2-yl]-beta-alaninamide]
26 | 6.00 to 7.00 | 6.15 | CCCOC1CCCN(c2ccc(-c3cc(C)cc(Nc4nccc(C(F)(F)F)n4)c3)cn2)C1 (centres unmarked) [Example 7.63, N-{3-methyl-5-[6-(3-propoxypiperidin-1-yl)pyridin-3-yl]phenyl}-4-(trifluoromethyl)pyrimidin-2-amine]
27 | > 7.00 | – | CC(=O)NCCCNc1ccc(-c2cc(C)cc(Nc3nccc(C(F)(F)F)n3)c2)cn1 [Example 7.64, N-(3-{[5-(3-methyl-5-{[4-(trifluoromethyl)pyrimidin-2-yl]amino}phenyl)pyridin-2-yl]amino}propyl)acetamide]
28 | 6.00 to 7.00 | – | CNC(=O)C1CCCN1c1ccc(-c2cc(C)cc(Nc3nccc(C(F)(F)F)n3)c2)cn1 (centres unmarked) [Example 7.65, N-methyl-1-[5-(3-methyl-5-{[4-(trifluoromethyl)pyrimidin-2-yl]amino}phenyl)pyridin-2-yl)prolinamide]
29 | > 7.00 | – | Cc1cc(Nc2nccc(C(F)(F)F)n2)cc(-c2ccc(NCC(=O)N(C)C)nc2)c1 [Example 7.66, N,N-dimethyl-N~2~-[5-(3-methyl-5-{[4-(trifluoromethyl)pyrimidin-2-yl]amino}phenyl)pyridin-2-yl]glycinamide]
30 | > 7.00 | – | Cc1cc(Nc2nccc(C(F)(F)F)n2)cc(-c2ccc(N3CCNC(=O)C3)nc2)c1 [Example 7.67, 4-[5-(3-methyl-5-{[4-(trifluoromethyl)pyrimidin-2-yl]amino}phenyl)pyridin-2-yl]piperazin-2-one]
31 | > 7.00 | – | Cc1cc(Nc2nccc(C(F)(F)F)n2)cc(-c2ccc(NC3CCNC3=O)nc2)c1 (centres unmarked) [Example 7.68, 3-{[5-(3-methyl-5-{[4-(trifluoromethyl)pyrimidin-2-yl]amino}phenyl)pyridin-2-yl]amino}pyrrolidin-2-one]
32 | > 7.00 | – | Cc1cc(Nc2nccc(C(F)(F)F)n2)cc(-c2ccc(NC(CO)C(=O)O)nc2)c1 (centres unmarked) [Example 7.69, N-[5-(3-methyl-5-{[4-(trifluoromethyl)pyrimidin-2-yl]amino}phenyl)pyridin-2-yl]serine]
33 | > 7.00 | – | Cc1cc(Nc2nccc(C(F)(F)F)n2)cc(-c2ccc(N[C@H](CC(C)C)C(=O)O)nc2)c1 [Example 7.70, N-[5-(3-methyl-5-{[4-(trifluoromethyl)pyrimidin-2-yl]amino}phenyl)pyridin-2-yl]-D-leucine]
34 | > 7.00 | – | Cc1cc(Nc2nccc(C(F)(F)F)n2)cc(-c2ccc(N[C@@H](CCO)C(=O)O)nc2)c1 [Example 7.71, N-[5-(3-methyl-5-{[4-(trifluoromethyl)pyrimidin-2-yl]amino}phenyl)pyridin-2-yl]-L-homoserine]
